Laboratory results published in patent US11397178B2, “Method of predicting progression of idiopathic pulmonary fibrosis and monitoring of therapeutic efficacy” (Cedars-Sinai Medical Center, priority 2016, dated 2022).

Key:
[1] = FDA approved treatment of IPF patients; cited from earlier work
[2] = system: CCR10+ IPF Cell-Induced Fibrosis in NSG Mice; assay: Humanized NSG mouse model of IPF: BIBF1120 from day 35 (Masson's trichrome, hydroxyproline, flow cytometry); assay type: in vivo; settings: for modulation of fibrosis in humanized NSG model of IPF: therapeutic treatment from day 35
Method: IPF cells were injected intravenously into NSG mice and beginning at day 35 after injection mice were treated either with a solutol vehicle or 60 mg/kg BIBF-1120 solubilized in solutol for 5 days a week over 4 weeks. (A-C) Depicted are representative images of Masson's Trichrome staining of non-humanized (A) and humanized NSG mice that received solutol (B) or BIBF-1120 (C). (D) Depicted is the hydroxyproline in the lungs of non-humanized or humanized NSG mice that received solutol or BIBF-1120. Data are mean±s.e.m.; n=5-10/group. (E-F) Solutol- or BIBF1120-treated NSG humanized mouse lungs were analyzed by flow cytometry for human CD45, EpCAM and/or CCR10 expression. Depicted is the average number of CD45^+ CCR10^+ (E) and Lin^− CCR10^+ (F) cells in humanized NSG mice treated with solutol or BIBF1120. Data are mean±s.e.m.; n=5-10/group. p values indicated
Six to eight-week old, female, pathogen free NOD Cg-Prkdc^SCID IL2rg^Tm1wil Szi (NSG) or NOD.Cg-Prkdc^SCID IL2rg^tm1Wil Tg(CAG-EGFP) 10sb/SzJ (NSG-GFP) were purchased from Jackson Laboratories and housed in Cedars-Sinai Medical Center's high isolation animal rooms. NSG mice were allowed a minimum of one week to acclimate in the facility and then these mice either received nothing (i.e., non-humanized) 1×10^6 IPF cells by intravenous injection (i.e. humanized). In most in vivo experiments, the IPF cells used were removed from liquid N2 storage, rapidly thawed, and washed in serum-free medium prior to injection into NSG mice. Humanized NSG mice received KB004 (i.e., anti-EphA3 mAb supplied by Kalobios; 5 mg/kg) or KB243 (i.e., appropriate IgG control supplied by Kalobios; 5 mg/kg) either from days 0 to 35 or from days 35 to 63 by intraperitoneal injection twice weekly. […] Other groups of humanized NSG mice received either vehicle (i.e., solutol) or BIBF1120 (Cayman Chemicals) by oral gavage beginning at day 35 after IPF cell injection. Vehicle or drug was administered 5 days a week until day 63 after IPF cell injection. All NSG groups were monitored daily and mice were sacrificed if there is evidence for morbidity such as weight loss of more than 20%, loss of fur, paralysis and/or lack of responsiveness when handled.
Murine lung cellular suspensions were generated using a mouse lung dissociation kit, C-tubes, and a GentleMacs dissociator (Miltenyi Biotech). Spleens were dissociated using a sterile rubber tip of 1 ml syringe plunger and 100 μm 50 ml tube filters (BD bioscience) as follows: isolated spleens were placed in 1 ml of sterile complete medium until all the samples were collected. Sterile 50 ml conical tube filters were placed on top of sterile 50 ml conical tubes and were equilibrated by pipetting 1 ml of calcium and magnesium free DPBS (DBPS; Cellgro) through the filters. Spleens were transferred to a sterile 50 ml filter, cellular suspensions were generated using a sterile rubber tip of a syringe plunger, and splenic material was flushed with 5 ml of DPBS. Lung and splenic cell suspensions were centrifuged and resuspended in 1 ml of RBC lysis buffer (Biolegend), incubated at room temperature for 1-2 min and then equilibrated by adding 25 ml of DPBS to each tube. Cells were centrifuged and resuspended in flow cytometric wash/staining buffer (DPBS+2% FBS) in the presence of human and mouse Fc receptor blocking antibodies (Biolegend). Cells were then stained with anti-human-CD45, -EpCAM and -CCR10 antibodies for 20 min at 4° C. Unstained, isotype controls, fluorescent minus one controls and staining in non-humanized murine lung and spleen suspensions were utilized to gate out any non-specific antibody binding and background fluorescence. CCR10 antibodies were validated via the enrichment for CCR10 transcripts in magnetically sorted CCR10^+ cells versus non-sorted normal and IPF explant cells (FIG. 35). […]

[3] = system: normal and IPF lung fibroblasts; assay: Soluble collagen 1 ELISA of lung fibroblast conditioned supernatants; assay type: cell-based, human
Method: Lung fibroblasts (5000/well) were plated into a 96 well plate and incubated overnight. After incubation, cells were stimulated with 20 ng/ml of IL1β or vehicle in the presence or absence of 20 μg/ml of EphA3-Fc or IgG antibodies (supplied by Kalobios) for 24 and 72 h. After stimulation, conditioned supernatants were collected and the cells were washed and fixed with 4% paraformaldehyde solution in PBS for 10 min at room temperature.
Lung fibroblast conditioned supernatants were diluted 1:5 in DPBS. Purified Collagen 1 (STEMCELL Technologies Inc), diluted in 1:5 DBPS diluted complete medium, was utilized to generate an 8-point collagen 1 standard ranging from 200-0 ng/ml. Fifty microliters of the supernatants and standards were coated onto multisorb 96 well plates (Thermo Fisher Scientific) overnight at 4° C. After coating, the plates were washed and blocked with 200 μl of 3% BSA solution in DPBS (Lonza) for 1 h at room temperature on an orbital shaker. After blocking, plates were washed and 50 μl of 200 ng/ml biotin-conjugated anti collagen-1 antibody (Abcam Ab24821) was added to each well and the plates were incubated for 2 h at room temperature on an orbital shaker. […] Data were acquired by reading the absorbance at 405 nm using a Synergy H1 microplate reader (BioTek Instruments Inc.). […]

[4] = system: normal and IPF lung fibroblasts; assay: Flow cytometry for cell surface EphA3 expression on stimulated lung fibroblasts; assay type: cell-based, human; settings: 20 ng/ml; twenty-four hours after stimulation
Method: IPF surgical lung biopsy samples were obtained. IPF lung fibroblasts were generated by mechanically dissociating IPF lung biopsies or explants into sterile tissue culture plates. After mechanical dissociation, tissues were passed through a 25-ml pipette for 10 times, in DMEM (Lonza)+15% FBS (Cell Generation), 100 IU penicillin and 100 μg/ml streptomycin (Mediatech), 292 μg/ml L-Glutamine (Mediatech) and 100 μg/ml of Primocin (Invivogen) (complete medium). Cells were cultured at 37° C. and 10% CO2, medium was changed twice a week by careful removal of the liquid and retaining the minced tissues. This process was repeated for 1-2 weeks, until stromal colonies were apparent, after which fibroblast colonies were trypsinized and passaged. After 4-5 passages, fibroblast purity was confirmed using flow cytometry and/or qPCR analysis for CD45, EpCAM and CD31. Fibroblasts were then cultured in complete medium; fresh medium was added to the fibroblasts every 2-3 days and the cells were passaged when they were 70-90% confluent. […] After treatment, cells were then analyzed by flow cytometry for cell surface EphA3 expression.
Lung fibroblasts were plated and treated as described above. […] Flow cytometric data were acquired using a MACSQuant 10 (Miltenyi Biotech) flow cytometer and data were analyzed using Flowjo software V10.2 (freest& Inc.).

[5] = system: normal and IPF lung fibroblasts; assay: In cell αSMA ELISA in lung fibroblasts; assay type: cell-based, human; settings: CCL28; data not shown
Method: Lung fibroblasts (5000/well) were plated into a 96 well plate and incubated overnight. […] After stimulation, conditioned supernatants were collected and the cells were washed and fixed with 4% paraformaldehyde solution in PBS for 10 min at room temperature.
After fixation, cells were washed and permeabilized with 0.5% Triton X-100 in DPBS for 10 min, washed and endogenous peroxidase activity was blocked by adding a solution of 0.3% H2O2 in DPBS to the cells and incubating the cells with the solution for 20 min at room temperature. Cells were then washed and wells were blocked with a 1% BSA solution in DPBS for 30 min at room temperature. After blocking, cells were incubated with 500 ng/ml of anti-czSMA antibodies (Clone 1A4, Abcam) overnight at 4° C. on a rocker. […] The reaction was then stopped by adding 50 μl of 2N sulfuric acid and data were acquired by reading the absorbance at […] using a Synergy H1 microplate reader (BioTek Instruments Inc.). […] Data were acquired by reading the absorbance at 595 nm using a Synergy H1 microplate reader (BioTek Instruments Inc.). Ratios were generated from αSMA/β-tubulin absorbance data and the results were normalized to vehicle. The fold change after 24 and 72 h relative to vehicle was then determined and depicted in the figures.

lung fibroblast = assay: Lung fibroblast invasiveness (not shown); assay type: cell-based, human; settings: CCL28; data not shown
[6] = 60 mg/kg from day 35, day 63, flow cytometry

## COC(=O)c1ccc2c(c1)NC(=O)/C2=C(\Nc1ccc(N(C)C(=O)CN2CCN(C)CC2)cc1)c1ccccc1 [BIBF1120, Nintedanib]
[1]
  disease progression in IPF patients: effective at slowing down, but not halting, disease progression
[2]; 60 mg/kg from day 35, day 63
  lung hydroxyproline compared with non-humanized NSG lungs: elevated
[2]; [6]
  CD45+ CCR10+ cells in NSG lungs compared with vehicle-treated group: greater
  Lin- CCR10+ cells in NSG lungs compared with vehicle-treated group: greater
[2]; 60 mg/kg in solutol from day 35, lungs at day 63 after IPF cell injection
  lung fibrosis (Masson's trichrome staining): showed lung fibrosis
[2]
  modulation of fibrosis in humanized NSG model of IPF: ineffective at modulating fibrosis
[2]; listed as nintedanib
  modulation of fibrosis in humanized NSG model of IPF: did not therapeutically modulate fibrosis

## Cc1ccc(=O)n(-c2ccccc2)c1 [ESBRIET, Pirfenidone]
[1]
  disease progression in IPF patients: effective at slowing down, but not halting, disease progression

## IL1β: cytokine Interleukin 1 beta used to stimulate lung fibroblasts (R&D systems) [reference compound]
[3]; IL1β 20 ng/ml, after 24 and, to a lesser extent, 72 h
  collagen 1 in normal and IPF lung fibroblasts: induced
[4]
  surface EphA3 on normal and IPF lung fibroblasts: significantly unregulated

B1: CCL28: chemokine, CCR10 ligand (protein, UniProt Q9NRJ3 20-127, looked up)
C-C motif chemokine 28: SEAILPIASSCCTEVSHHISRRLLERVNMCRIQRADGDCDLAAVILHVKRRRICVSPHNHTVKQWMKVQAAKKNGKGNVCHRKKHHGKRNSNRAHQGKHETYGHKTPY
[3]; CCL28, data not shown
  collagen 1 secretion by lung fibroblasts: did not consistently modulate
[5]
  αSMA protein expression in lung fibroblasts: did not consistently modulate
Lung fibroblast
  lung fibroblast invasiveness: did not consistently modulate
